Source: patent US12037324B2, “Biarylmethyl heterocycles” (Université de Montréal, priority 2016, dated 2024)

Key:
Assay type in all cases: cell-based
AGTR1 [1] = target: T1, AGTR1 (Homo sapiens, UniProt P30556); assay: DiscoveRx β-arrestin2 recruitment assay (enzyme complementation, Pathunter CHO-K1 AGTR1 β-arrestin cell line); details: DiscoveRx β-arrestin2 recruitment; for DiscoveRx β-arrestin2 Ymax (%): maximal response
T1 construct: host or cells: Pathunter CHO-K1 AGTR1 β-arrestin cell line (CHO-K1)
T1 sequence (P30556 1-359): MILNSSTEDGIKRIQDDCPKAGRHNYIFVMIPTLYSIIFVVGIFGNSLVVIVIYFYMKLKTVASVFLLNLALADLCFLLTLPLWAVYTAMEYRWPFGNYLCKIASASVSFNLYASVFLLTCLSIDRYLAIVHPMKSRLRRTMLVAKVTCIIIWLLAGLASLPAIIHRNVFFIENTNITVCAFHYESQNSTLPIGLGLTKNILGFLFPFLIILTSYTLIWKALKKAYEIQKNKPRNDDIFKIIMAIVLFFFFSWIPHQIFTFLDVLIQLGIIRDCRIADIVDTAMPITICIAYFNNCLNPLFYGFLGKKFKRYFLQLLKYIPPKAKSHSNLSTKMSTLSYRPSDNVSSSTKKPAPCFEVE
Procedure: In one aspect of the invention, signaling bias of compounds was assessed by comparing the relative activity of compounds to activate both the β-arrestin and Gq signaling pathways. In order to confirm signaling bias, compounds were studied in two different assay formats. DiscoveRx β-arrestin2 Recruitment and IP1 Assays β-arrestin2 recruitment to activated receptors can be assessed using an enzyme complementation method (Zhao, Jones et al. 2008). […] Cells (5000/well) were plated into 1536 well plates (Cellocoat plates, Greiner Bio One, Monroe, NC) 14-16 hours before each experiment in 20 μl DMEM/F12 medium (Thermo-Fisher Scientific, Carlsbad, CA) containing heat-inactivated 1% fetal bovine serum. Subsequently, the compounds of interest were added at varying concentrations to the wells in a volume of 200 nl and the cells incubated for 90 min at 37° C. The detection reagent (10 μl) was added to each well and the plates incubated at room temperature for 1 hour before measurement of chemiluminescence using an EnVision Multilabel Reader (Perkin-Elmer, Waltham, MA). The data are processed using Toolset for Runmaster QCMulti. Concentration-response curves are fitted and EC50s (agonist mode) and IC50s (antagonist mode) estimated using a 4-parameter logistic equation. Compound activities are reported as a relative percentage to the maximal effect of All in the assays.

AGTR1 [2] = target: T1, AGTR1; assay: DiscoveRx IP1 accumulation assay (HTRF), agonist mode, Pathunter CHO-K1 AGTR1 β-arrestin cell line; details: for EC50: read-out: IP-1 EC50
Procedure: In one aspect of the invention, signaling bias of compounds was assessed by comparing the relative activity of compounds to activate both the β-arrestin and Gq signaling pathways. In order to confirm signaling bias, compounds were studied in two different assay formats.
DiscoveRx β-arrestin2 Recruitment and IP1 Assays
Gq activation can be assessed by measuring the accumulation of inositol phosphates (e.g. IP3, IP1) that are liberated following activation of phospholipase C by Gq (Thomsen, Frazer et al. 2005). In the current invention we have utilized the DiscoveRx Pathunter CHO-K1 AGTR1 β-arrestin cell line to also measure IP1 accumulation in response to compounds. IP1 accumulation was measured in both agonist and antagonist modes. In agonist mode, cells are plated as above 14-16 hours before the experiment. The medium is then removed and compounds at varying concentrations added in a final volume of 20 μl. The cells are incubated at 37° C. for 90 min. IP1 accumulation detected using a commercial HTRF assay according to manufacturer's instructions (Cisbio, Bedford, MA). Specifically, 4 μl of D2-conjugate solution (diluted 1:20 in Cisbio HTRF assay buffer) is added to each well, followed by the addition of 4 μl of anti-IP1 cryptate diluted 1:20 in HTRF assay buffer and the plates incubated for 20 min at room temperature. 14 μl from each well is measured using an Envision multi-label reader and data processed using Toolset for Runmaster QCMulti. Concentration-response curves are fitted and EC50s (agonist mode) and IC50s (antagonist mode) estimated using a 4-parameter logistic equation. Compound activities are reported as a relative percentage to the maximal effect of All in the assays.

hAT1R = target: T2, hAT1R (Homo sapiens, UniProt P30556); assay: BRET β-arrestin2 biosensor assay, higher receptor expression (hAT1R 5 ng/well), HEK293 cells; details: for EC50: High AT1R Expression
T2 sequence (P30556 1-359): T1 sequence (P30556 1-359)

SMILES | EC50 (AGTR1 [1]) | DiscoveRx β-arrestin2 Ymax (%) (AGTR1 [1]) | EC50 (AGTR1 [2]) | BRET β-Arrestin2 High AT1R Expression Ymax (%) (hAT1R) | EC50 (hAT1R) | IP-1 Ymax (%) (AGTR1 [2])
CCCCC1=NC2(CCCC2)C(=O)N1Cc1ccc(-c2cc(-c3cccs3)ccc2-c2nn[nH]n2)cc1 [Example 131] | 13.7 nM | 19.1% | > 100000 nM | 42.5% | 49 nM | –
CCc1nc2c(C)cc(C)nc2n1Cc1ccc(-c2cc(OCc3ccccc3)ccc2-c2nnn[nH]2)cc1 [Example 212, 3-((5′-(Benzyloxy)-2′-(1H-tetrazol-5-yl)-[1,1′-biphenyl]-4-yl)methyl)-2-ethyl-5,7-dimethyl-3H-imidazo[4,5-b]pyridine] | 10.1 nM | 11.2% | 20.1 nM | 29.2% | 10.6 nM | 3.8%
CCCCC1=NC2(CCCC2)C(=O)N1Cc1ccc(-c2cc(-c3cccnc3)ccc2-c2nn[nH]n2)cc1 [Example 125] | 45.3 nM | 16.6% | > 100000 nM | 15.1% | 300 nM | –
CCc1nc2c(C)cc(C)nc2n1Cc1ccc(-c2cc(C3CCCCN3)ccc2-c2nn[nH]n2)cc1 (single isomer, unassigned) [Example 75, 2-ethyl-5,7-dimethyl-3-((5′-(piperidin-2-yl)-2′-(2H-tetrazol-5-yl)-[1,1′-biphenyl]-4-yl)methyl)-3H-imidazo[4,5-b]pyridine] | 543 nM | 7.1% | > 100000 nM | 53.9% | 1120 nM | –
CCc1nc2c(C)cc(C)nc2n1Cc1ccc(-c2cc(-c3cccn3C)ccc2-c2nn[nH]n2)cc1 [Example 22] | 10.3 nM | 14.8% | 34.4 nM | 57.1% | 33.7 nM | 2.4%
CCc1nc2c(C)cc(C)nc2n1Cc1ccc(-c2cc(-c3cccc4cnccc34)ccc2-c2nn[nH]n2)cc1 [Example 16] | 59.8 nM | 17.1% | 55.3 nM | 69.9% | 24.7 nM | 3.6%
CCc1nc2c(C)cc(C)nc2n1Cc1ccc(-c2cc(Oc3cccc(Cl)c3)ccc2-c2nnn[nH]2)cc1 [Example 206] | 11.1 nM | 21.2% | 35.4 nM | 57.9% | 15.8 nM | 4.8%
CCCCC1=NC2(CCCC2)C(=O)N1Cc1ccc(-c2cc(-c3ccc(CO)cc3)ccc2-c2nn[nH]n2)cc1 [Example 126] | 5.3 nM | 17.3% | > 100000 nM | 65.1% | 47.1 nM | –
CCCCC1=NC2(CCCC2)C(=O)N1Cc1ccc(-c2cc(N3CCC[C@H](C)C3)ccc2-c2nn[nH]n2)cc1 [Example 104] | 116 nM | 9.1% | > 100000 nM | 23.4% | 346 nM | –
CCc1nc2c(C)cc(C)nc2n1Cc1ccc(-c2cc(C3=NCCC3)ccc2-c2nn[nH]n2)cc1 [Example 77, 3-((5′-(3,4-dihydro-2H-pyrrol-5-yl)-2′-(2H-tetrazol-5-yl)-[1,1′-biphenyl]-4-yl)methyl)-2-ethyl-5,7-dimethyl-3H-imidazo[4,5-b]pyridine] | 60.2 nM | 21.1% | 204 nM | 77.1% | 90.6 nM | 7.1%
CCc1nc2c(C)cc(C)nc2n1Cc1ccc(-c2cc(N3CCC(F)(F)CC3)ccc2-c2nn[nH]n2)cc1 [Example 82, 3-((5′-(4,4-difluoropiperidin-1-yl)-2′-(2H-tetrazol-5-yl)-[1,1′-biphenyl]-4-yl)methyl)-2-ethyl-5,7-dimethyl-3H-imidazo[4,5-b]pyridine] | 95.7 nM | 16.8% | > 100000 nM | 49.6% | 142 nM | –
CCc1nc2c(C)cc(C)nc2n1Cc1ccc(-c2cc(N3CCc4ccccc43)ccc2-c2nn[nH]n2)cc1 [Example 96] | 12.6 nM | 33.0% | 28.7 nM | 77.6% | 12.9 nM | 5.3%
CCc1nc2c(C)cc(C)nc2n1Cc1ccc(-c2cc(-c3ccccc3O)ccc2C(=O)O)cc1 [Example 184] | 31 nM | 51.2% | 110 nM | 85.9% | 14.7 nM | 12.0%
CCCCOC(=O)NS(=O)(=O)c1sc(-c2ccccc2)cc1-c1ccc(Cn2c(CC)nc3c(C)cc(C)nc32)cn1 [Example 50, Butyl (3-(5-((2-ethyl-5,7-dimethyl-3H-imidazo[4,5-b]pyridin-3-yl)methyl)pyridin-2-yl)-5-phenylthiophen-2-yl)sulfonylcarbamate] | 10.9 nM | 21.8% | 132 nM | 64.9% | 16.8 nM | 6.7%
CCCCC1=NC2(CCCC2)C(=O)N1Cc1ccc(-c2cc(N3CCC(C)CC3)ccc2-c2nn[nH]n2)cc1 [Example 100] | 28.8 nM | 12.7% | 49.9 nM | 19.4% | 155 nM | 6.1%
CCCCC1=NC2(CCCC2)C(=O)N1Cc1ccc(-c2cc(N3CC(C)(C)c4ccccc43)ccc2-c2nn[nH]n2)cc1 [Example 107] | 26.7 nM | 24.6% | > 100000 nM | 54.3% | 226 nM | –
CCc1nc2c(C)cc(C)nc2n1Cc1ccc(-c2cc(-c3cnn(C)c3)ccc2-c2nn[nH]n2)cc1 [Example 21] | 22.1 nM | 21.1% | 77.3 nM | 64.0% | 51.4 nM | 6.9%
